In US5374711A, “Chemical modification of 2"-amino group in elsamicin a” (Bristol-Myers Squibb Company, priority 1993, dated 1994):
In brackets after ≈: the same amount, converted by molar mass. Where a name gives a salt, the structure may show the parent alone.

Assays:
[1] = system: lymphocytic leukemia P388; assay: In vivo antitumor activity against P388 leukemia in mice (ip, Q1Dx3); parameters: species or system mice (female CDF1); details: for T/C % of MST / prolongation of life-span in the P388-bearing mice: Q1Dx3, ip; for times less active than the parent compound in terms of minimum effective doses (MED): P388, vs elsamicin A
Procedure: (§1) Among the derivatives tested, in vivo antitumor activity of six derivatives showing relatively potent cytotoxicity was tested in the lymphocytic leukemia P388 and B16 melanoma systems. Female CDF1 (for P388) and male BDF1 (for B16) mice were inoculated by ip injection at 10^6 P388 cells and 0.5 ml of a 10% B16 brei per mouse, respectively (day 0). […] The percent increase of median survival time (MST) of treated animals over that of untreated control animals was determined and reported as T/C %. Compounds showing T/C % values of 125 or greater are considered to have significant antitumor activity. […] The others had no activity at the doses tested. Derivatives 4d4e, and 5 when tested in the B16 system, also gave 10- 30 times less antitumor activity than elsamicin A in terms of MED (Table 5).

[2] = system: B16 melanoma; assay: In vivo antitumor activity against B16 melanoma in mice (ip, Q4Dx3); parameters: species or system mice (male BDF1); details: for times less antitumor activity than elsamicin A in terms of MED: B16, vs elsamicin A
Procedure: as §1

[3] = system: murine melanoma B16-F10 cells; assay: cells; details: Mus musculus, B16-F10, 72 h, read-out: Cytotoxicity IC50
Procedure: For in vitro cytotoxicity experiment, murine melanoma B16-F10 cells were grown and maintained in Eagle's minimum essential medium (Nissui), which contains kanamycin (60 μg/ml), supplemented with heat-inactivated fetal calf serum (10%) and nonessential amino acids (0.6%) at 37° C. under a humidified atmosphere in a 5% CO2 incubator, Exponentially growing B16-F10 cells were harvested, counted and suspended in the culture medium at the concentration of 2.0×10^4 cells/ml. The cell suspension (180 μl) was planted into wells of a 96-well microtiter plate and incubated for 24 hours. Test compounds (20 μl) were added to the wells and the plates were further incubated for 72 hours. The cytotoxic activity was colorimetrically determined at 540 nm after staining viable cells with neutral red solution.

[4] = system: aerobic gram-positive bacteria; details: cited from earlier work
[5] = system: anaerobic bacteria; details: cited from earlier work
[6] = system: leukemia P388; details: in vitro and in vivo; cited from earlier work
[7] = system: lymphoid leukemia L1210; details: in vitro and in vivo; cited from earlier work
[8] = system: melanotic melanoma B16; details: in vitro and in vivo; cited from earlier work

Row | Compound | T/C % of MST ([1]; 0.1 mg/kg/day) [%] | T/C % of MST ([1]; 0.3 mg/kg/day) [%] | T/C % of MST ([1]; 1 mg/kg/day) [%] | T/C % of MST ([1]; 3 mg/kg/day) [%] | T/C % of MST ([1]; 10 mg/kg/day) [%] | T/C % of MST ([2]; 0.3 mg/kg/day, Q4Dx3 ip) [%] | T/C % of MST ([2]; 1 mg/kg/day, Q4Dx3 ip) [%] | T/C % of MST ([2]; 3 mg/kg/day, Q4Dx3 ip) [%] | T/C % of MST ([2]; 10 mg/kg/day, Q4Dx3 ip) [%] | times less active than the parent compound in terms of minimum effective doses (MED) [1] | prolongation of life-span in the P388-bearing mice [1] | times less antitumor activity than elsamicin A in terms of MED [2] | other results
1 | CO[C@@H]1[C@@H](N)[C@@H](O[C@H]2[C@H](Oc3cccc4c(O)c5c(=O)oc6ccc(C)c7c(=O)oc(c34)c5c67)O[C@H](C)[C@H](O)[C@]2(C)O)O[C@H](C)[C@@H]1O [Compound 1, Elsamicin A] | 120 | 137 | 150 | 170 | 205 | 128 | 168 | 208 | ≥ 282 | – | – | – | T/C % of MST ([1]; 20 mg/kg/day): Tox; T/C % of MST ([2]; 0.1 mg/kg/day, Q4Dx3 ip): 115%; No. of survivors/tested on day 50 ([2]; 10 mg/kg/day, Q4Dx3 ip, day 50): 4/8; IC50 [3]: 0.07 µg/mL (≈ 0.107 µM); antibacterial activity [4]: exhibits antibacterial activity; antibacterial activity [5]: exhibits antibacterial activity; activity against murine tumor cells [6]: exerts activity; activity against murine tumor cells [7]: exerts activity; activity against murine tumor cells [8]: exerts activity
2 | CO[C@H]1[C@@H](O)[C@@H](C)O[C@H](O[C@H]2[C@H](Oc3cccc4c(O)c5c(=O)oc6ccc(C)c7c(=O)oc(c34)c5c67)O[C@H](C)[C@H](O)[C@]2(C)O)[C@@H]1NC(=O)CN [Compound 3d, 2"-N-Glycylelsamicin A] | – | – | 95 | 110 | 110 | – | – | – | – | – | – | – | –
3 | CO[C@H]1[C@@H](O)[C@@H](C)O[C@H](O[C@H]2[C@H](Oc3cccc4c(O)c5c(=O)oc6ccc(C)c7c(=O)oc(c34)c5c67)O[C@H](C)[C@H](O)[C@]2(C)O)[C@@H]1NC(C)C [Compound 4a, 2"-N-Isopropylelsamicin A] | – | – | 110 | 120 | 140 | – | – | – | – | 10-30 times | quite limited prolongation of life-span | – | –
4 | CN[C@H]1[C@@H](O[C@H]2[C@H](Oc3cccc4c(O)c5c(=O)oc6ccc(C)c7c(=O)oc(c34)c5c67)O[C@H](C)[C@H](O)[C@]2(C)O)O[C@H](C)[C@H](O)[C@@H]1OC [Compound 4d, 2"-N-Methylelsamicin A] | 100 | 100 | 120 | 130 | 145 | 106 | 100 | 115 | 135 | 10-30 times | quite limited prolongation of life-span | 10- 30 times | –
5 | CO[C@H]1[C@@H](O)[C@@H](C)O[C@H](O[C@H]2[C@H](Oc3cccc4c(O)c5c(=O)oc6ccc(C)c7c(=O)oc(c34)c5c67)O[C@H](C)[C@H](O)[C@]2(C)O)[C@@H]1N(C)C [Compound 4e, 2"-N,N-Dimethylelsamicin A] | – | – | 110 | 130 | 140 | – | 103 | 109 | 132 | 10-30 times | quite limited prolongation of life-span | 10- 30 times | –
6 | CO[C@H]1[C@@H](O)[C@@H](C)O[C@H](O[C@H]2[C@H](Oc3cccc4c(O)c5c(=O)oc6ccc(C)c7c(=O)oc(c34)c5c67)O[C@H](C)[C@H](O)[C@]2(C)O)[C@@H]1N1CCOCC1 [Compound 4f, 2"-Deamino-2"-morpholinoelsamicin A] | – | – | 100 | 105 | 100 | – | – | – | – | – | – | – | –
7 | CO[C@H]1[C@@H](O)[C@@H](C)O[C@H](O[C@H]2[C@H](Oc3cccc4c(O)c5c(=O)oc6ccc(C)c7c(=O)oc(c34)c5c67)O[C@H](C)[C@H](O)[C@]2(C)O)[C@@H]1NC=N [Compound 5, 2"-N-Formimidoylelsamicin A hydrochloride] | 100 | 100 | 120 | 130 | 140 | 100 | 103 | 126 | 150 | 10-30 times | quite limited prolongation of life-span | 10- 30 times | –
